{"source": "patent US8871934B2", "about": "“Fluorene compound and pharmaceutical use thereof” (Japan Tobacco Inc., priority 2008, dated 2014)", "target": "human PDHK2 (hPDHK2) (Homo sapiens (Human), UniProt Q15119)", "assay": "Inhibitory action of PDHK activity in vitro (kinase reaction, residual PDH activity measured)", "assay_type": "biochemical", "key": {"[1]": {"details": "PDHK inhibitory activity, class symbol of IC50"}, "[2]": {"details": "read-out: PDHK inhibitory activity IC50"}}, "note": "Like-named read-outs stand apart in the source and are kept apart here.", "data": [{"smiles": "COCc1ccc2c(c1)C(O)(C(F)(F)F)c1ccccc1-2", "note": "(stereo not drawn) [compound 75]", "values": [{"measurement": "IC50", "setting": "[1]", "result": "> 1", "unit": "µM"}, {"measurement": "IC50", "setting": "[2]", "result": 6.78, "unit": "µM"}]}, {"smiles": "CC(=O)Nc1cccc2c1-c1ccccc1C2(O)C(F)(F)F", "note": "(stereo not drawn) [compound 19]", "values": [{"measurement": "IC50", "setting": "[1]", "result": "> 1", "unit": "µM"}, {"measurement": "IC50", "setting": "[2]", "result": "> 100", "unit": "µM"}]}, {"smiles": "CC(=O)N(C)CC(C)Oc1ccc2c(c1)C(O)(C(F)(F)F)c1ccccc1-2", "note": "(stereo not drawn) [compound 380]", "values": [{"measurement": "IC50", "setting": "[1]", "result": "> 1", "unit": "µM"}, {"measurement": "IC50", "setting": "[2]", "result": 1.49, "unit": "µM"}]}, {"smiles": "O=C(c1ccc2c(c1)C(O)(C(F)(F)F)c1ccccc1-2)N1CCC(O)C1", "note": "(stereo not drawn) [compound 215]", "values": [{"measurement": "IC50", "setting": "[1]", "result": "> 1", "unit": "µM"}, {"measurement": "IC50", "setting": "[2]", "result": 4.6, "unit": "µM"}]}, {"smiles": "CC(=O)Nc1ccc(-c2ccc3c(c2)C(O)(C(F)(F)F)c2ccccc2-3)cc1", "note": "(stereo not drawn) [compound 197]", "values": [{"measurement": "IC50", "setting": "[1]", "result": "0.1 to 1", "unit": "µM"}, {"measurement": "IC50", "setting": "[2]", "result": 0.298, "unit": "µM"}]}, {"smiles": "O=C(c1cc(CO)c2c(c1)C(O)(C(F)(F)F)c1ccccc1-2)N1CCCC1", "note": "(stereo not drawn) [compound 572]", "values": [{"measurement": "IC50", "setting": "[1]", "result": "0.1 to 1", "unit": "µM"}, {"measurement": "IC50", "setting": "[2]", "result": 0.109, "unit": "µM"}]}, {"smiles": "Cn1cc(-c2cc(OCC(=O)N3CC(O)C3)cc3c2-c2ccccc2C3(O)C(F)(F)F)cn1", "note": "(single isomer, unassigned) [compound 475]", "values": [{"measurement": "IC50", "setting": "[1]", "result": "< 0.1", "unit": "µM"}, {"measurement": "IC50", "setting": "[2]", "result": 0.02, "unit": "µM"}]}, {"smiles": "Cn1cc(-c2cc(OCCCO)cc3c2-c2ccccc2C3(O)C(F)(F)F)cn1", "note": "(stereo not drawn) [compound 453]", "values": [{"measurement": "IC50", "setting": "[1]", "result": "< 0.1", "unit": "µM"}, {"measurement": "IC50", "setting": "[2]", "result": 0.028, "unit": "µM"}]}, {"smiles": "COC(=O)c1cc(-c2cncnc2)c2c(c1)C(O)(C(F)(F)F)c1ccccc1-2", "note": "(stereo not drawn) [compound 364]", "values": [{"measurement": "IC50", "setting": "[1]", "result": "0.1 to 1", "unit": "µM"}, {"measurement": "IC50", "setting": "[2]", "result": 0.178, "unit": "µM"}]}, {"smiles": "Cn1cc(-c2cc(C(=O)N3CCC[C@@H]3CO)cc3c2-c2ccccc2C3(O)C(F)(F)F)cn1", "note": "(stereo partly drawn) [compound 392]", "values": [{"measurement": "IC50", "setting": "[1]", "result": "0.1 to 1", "unit": "µM"}, {"measurement": "IC50", "setting": "[2]", "result": 0.2, "unit": "µM"}]}, {"smiles": "O=C(COc1cc(-c2cnn(CCO)c2)c2c(c1)C(O)(C(F)(F)F)c1ccccc1-2)N1CC(O)C1", "note": "(stereo not drawn) [compound 497]", "values": [{"measurement": "IC50", "setting": "[1]", "result": "< 0.1", "unit": "µM"}, {"measurement": "IC50", "setting": "[2]", "result": 0.031, "unit": "µM"}]}, {"smiles": "COc1cnc2c(c1)C(O)(C(F)(F)F)c1ccccc1-2", "note": "(stereo not drawn) [compound 378]", "values": [{"measurement": "IC50", "setting": "[1]", "result": "0.1 to 1", "unit": "µM"}, {"measurement": "IC50", "setting": "[2]", "result": 0.703, "unit": "µM"}]}, {"smiles": "N#Cc1cccc(-c2ccc3c(c2)C(O)(C(F)(F)F)c2ccccc2-3)c1", "note": "(stereo not drawn) [compound 214]", "values": [{"measurement": "IC50", "setting": "[1]", "result": "0.1 to 1", "unit": "µM"}, {"measurement": "IC50", "setting": "[2]", "result": 0.345, "unit": "µM"}]}, {"smiles": "O=C(c1cc(-c2cnn(CCO)c2)c2c(c1)C(O)(C(F)(F)F)c1ccccc1-2)N1CCC1", "note": "(stereo not drawn) [compound 461]", "values": [{"measurement": "IC50", "setting": "[1]", "result": "< 0.1", "unit": "µM"}, {"measurement": "IC50", "setting": "[2]", "result": 0.03, "unit": "µM"}]}, {"smiles": "OC1(C(F)(F)F)c2ccccc2-c2c(-c3cn[nH]c3)cccc21", "note": "(stereo not drawn) [compound 277]", "values": [{"measurement": "IC50", "setting": "[1]", "result": "0.1 to 1", "unit": "µM"}, {"measurement": "IC50", "setting": "[2]", "result": 0.125, "unit": "µM"}]}, {"smiles": "NC(=O)CCOc1ccc2c(c1)C(O)(C(F)(F)F)c1ccccc1-2", "note": "(stereo not drawn) [compound 301]", "values": [{"measurement": "IC50", "setting": "[1]", "result": "> 1", "unit": "µM"}, {"measurement": "IC50", "setting": "[2]", "result": 1.59, "unit": "µM"}]}, {"smiles": "OCc1cccc2c1-c1ccccc1C2(O)C(F)(F)F", "note": "(stereo not drawn) [compound 74]", "values": [{"measurement": "IC50", "setting": "[1]", "result": "> 1", "unit": "µM"}, {"measurement": "IC50", "setting": "[2]", "result": 3.32, "unit": "µM"}]}, {"smiles": "CCOc1cc(-c2cnn(CCC(=O)O)c2)c2c(c1)C(O)(C(F)(F)F)c1ccccc1-2", "note": "(single isomer, unassigned) [compound 581]", "values": [{"measurement": "IC50", "setting": "[1]", "result": "< 0.1", "unit": "µM"}, {"measurement": "IC50", "setting": "[2]", "result": 0.019, "unit": "µM"}]}, {"smiles": "O=C(c1ccc2c(c1)C(O)(C(F)(F)F)c1ccccc1-2)N1CCCC1", "note": "(stereo not drawn) [compound 53]", "values": [{"measurement": "IC50", "setting": "[1]", "result": "0.1 to 1", "unit": "µM"}, {"measurement": "IC50", "setting": "[2]", "result": 0.567, "unit": "µM"}]}, {"smiles": "CCCc1cc(-c2cnn(C(CO)CO)c2)c2c(c1)C(O)(C(F)(F)F)c1ccccc1-2", "note": "(stereo not drawn) [compound 652]", "values": [{"measurement": "IC50", "setting": "PDHK inhibitory activity (class symbol)", "result": "< 0.1", "unit": "µM"}, {"measurement": "IC50", "setting": "[2]", "result": 0.036, "unit": "µM"}]}, {"smiles": "O=C(O)CCCOc1ccc2c(c1)C(O)(C(F)(F)F)c1ccccc1-2", "note": "(stereo not drawn) [compound 258]", "values": [{"measurement": "IC50", "setting": "[1]", "result": "> 1", "unit": "µM"}, {"measurement": "IC50", "setting": "[2]", "result": 2.62, "unit": "µM"}]}, {"smiles": "OCCCCOc1cc(-c2cncnc2)c2c(c1)C(O)(C(F)(F)F)c1ccccc1-2", "note": "(stereo not drawn) [compound 428]", "values": [{"measurement": "IC50", "setting": "[1]", "result": "< 0.1", "unit": "µM"}, {"measurement": "IC50", "setting": "[2]", "result": 0.025, "unit": "µM"}]}, {"smiles": "COC(=O)c1cc(-c2cnn(C)c2)c2c(c1)C(O)(C(F)(F)F)c1ccccc1-2", "note": "(stereo not drawn) [compound 343]", "values": [{"measurement": "IC50", "setting": "[1]", "result": "< 0.1", "unit": "µM"}, {"measurement": "IC50", "setting": "[2]", "result": 0.053, "unit": "µM"}]}, {"smiles": "Cn1cc(-c2cc(CC(N)=O)c3c(c2)C(O)(C(F)(F)F)c2ccccc2-3)cn1", "note": "(stereo not drawn) [compound 637]", "values": [{"measurement": "IC50", "setting": "read-out: PDHK inhibitory activity (class symbol)", "result": "> 1", "unit": "µM"}, {"measurement": "IC50", "setting": "[2]", "result": "> 1", "unit": "µM"}]}, {"smiles": "OC1(C(F)(F)F)c2ccccc2-c2c(C(F)(F)F)cccc21", "note": "(stereo not drawn) [compound 64]", "values": [{"measurement": "IC50", "setting": "[1]", "result": "> 1", "unit": "µM"}, {"measurement": "IC50", "setting": "[2]", "result": 18, "unit": "µM"}]}, {"smiles": "CC(=O)c1cc(-c2cnn(CCC(=O)O)c2)cc2c1-c1ccccc1C2(O)C(F)(F)F", "note": "(stereo not drawn) [compound 594]", "values": [{"measurement": "IC50", "setting": "[1]", "result": "< 0.1", "unit": "µM"}, {"measurement": "IC50", "setting": "[2]", "result": 0.048, "unit": "µM"}]}, {"smiles": "O=C(c1ccc2c(c1)C(O)(C(F)(F)F)c1ccccc1-2)N1CCOCC1", "note": "(stereo not drawn) [compound 127]", "values": [{"measurement": "IC50", "setting": "[1]", "result": "> 1", "unit": "µM"}, {"measurement": "IC50", "setting": "[2]", "result": "> 10", "unit": "µM"}]}]}
